How the values were obtained:
[1] = target: T1, Human MC1R (Homo sapiens, UniProt Q01726); test: MCR agonist measurement (cAMP measurement), human MC1R agonist activity in human melanoma cell line HBL; type: cell-based; conditions: HBL cells; for EC50: 37° C. for 30 minutes, intracellular cAMP by fluorescence method; for Human MC1R IA %: Intrinsic Activity, vehicle cAMP = 0%, αMSH at 10^-6 M = 100%
T1 construct: endogenous in cells; host or cells: human melanoma cell line HBL
Experimental: (1) Method for Culturing Cells
Human MC1R agonist activity measurement was carried out by using human melanoma cell line HBL. Culture of HBL: F-10 Nutrient Mixture containing 10% FCS and Penicillin-streptomycin was used in the culture.
(2) cAMP Assay and Data Calculation
Each compound solution having each concentration was mixed with cAMP assay buffer (HBSS (Hank's Balanced Salt Solution) containing 10 mM HEPES and 0.1% BSA), and dispensed into 96 well plate. HBL was suspended in cAMP assay buffer containing 0.5 mM IBMX so that the concentrate became 5×10^4/mL, dispensed into the above 96 well plate, then mixed, left to stand at 37° C. for 30 minutes, and then the intracellular […] concentration was measured by fluorescence method using Envision (ex. 320 nm, em. 590 nm and 665 nm).

[2] = target: human MC4R (Homo sapiens, UniProt P32245); test: human MC4R agonist activity; type: cell-based
Sequence of human MC4R (P32245 whole entry): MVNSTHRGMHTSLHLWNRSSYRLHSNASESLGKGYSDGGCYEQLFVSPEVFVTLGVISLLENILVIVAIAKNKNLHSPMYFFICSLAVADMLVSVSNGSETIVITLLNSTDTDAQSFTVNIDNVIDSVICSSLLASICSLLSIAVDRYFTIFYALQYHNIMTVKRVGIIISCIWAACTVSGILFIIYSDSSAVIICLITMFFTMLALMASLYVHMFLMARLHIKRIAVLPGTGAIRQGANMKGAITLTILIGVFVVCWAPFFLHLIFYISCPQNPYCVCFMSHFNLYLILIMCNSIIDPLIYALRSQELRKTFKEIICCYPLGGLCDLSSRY

T1 sequence (Q01726 whole entry): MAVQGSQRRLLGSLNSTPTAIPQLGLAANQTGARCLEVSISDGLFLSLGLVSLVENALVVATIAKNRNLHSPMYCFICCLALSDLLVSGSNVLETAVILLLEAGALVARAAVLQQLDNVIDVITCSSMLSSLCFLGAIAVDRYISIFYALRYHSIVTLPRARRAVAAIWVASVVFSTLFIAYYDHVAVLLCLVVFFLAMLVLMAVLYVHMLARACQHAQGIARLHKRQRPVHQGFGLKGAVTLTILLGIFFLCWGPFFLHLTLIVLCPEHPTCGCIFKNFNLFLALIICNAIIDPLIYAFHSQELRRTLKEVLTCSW

Row | SMILES | EC50 [1] | Human MC1R IA % [1] | EC50 [2]
1 | COC[C@@H]1C[C@@H](c2ccc(F)cc2N2CCC(C(=O)O)CC2)CN1C(=O)[C@]1(F)CN([C@H]2CC[C@H](OC)CC2)C[C@H]1c1ccc(OC)cc1.Cl.Cl [Example 147, 1-{5-fluoro-2-[(3S,5S)-1-{[(3R,4R)-3-fluoro-1-(trans-4-methoxycyclohexyl)-4-(4-methoxyphenyl)pyrrolidin-3-yl]carbonyl}-5-(methoxymethyl)pyrrolidin-3-yl]phenyl}piperidine-4-carboxylic acid dihydrochloride] | 0.0017 µM | 102% | 0.341 µM
2 | CCO[C@H]1CC[C@@H](N2C[C@@H](c3ccc(OC)cc3)[C@](F)(C(=O)N3C[C@H](COC)[C@@H](c4ccc(C(F)(F)F)cc4N4CCC(C(=O)O)CC4)C3)C2)CC1 [Example 119] | 0.015 µM | 53% | –
3 | CCO[C@H]1CC[C@H](N2C[C@@H](c3ccc(OC)cc3)[C@](OC)(C(=O)N3C[C@H](COC)[C@@H](c4ccc(C(F)(F)F)cc4N4CCC(C(=O)O)CC4)C3)C2)CC1 [Example 140] | 0.0041 µM | 98% | –
4 | COC[C@H]1CN(C(=O)[C@]2(F)CN(C3CCCCC3)C[C@H]2c2ccc(OC)cc2)C[C@@H]1c1ccc(C(F)(F)F)cc1N1CCC(C(=O)O)CC1 [Example 27] | 0.0065 µM | 78% | –
5 | COc1ccc([C@@H]2CN(C(C)(C)C)C[C@@]2(F)C(=O)N2CCC(c3ccc(C(F)(F)F)cc3N3CCC(C(=O)NS(C)(=O)=O)CC3)CC2)cc1 [Example 274] | 0.0075 µM | 89% | –
6 | COc1ccc([C@@H]2CN(C(C)(C)C)C[C@@]2(F)C(=O)N2CCC(c3ccc(C(F)(F)F)cc3N3CCC(C(N)=O)CC3)CC2)cc1 [Example 232] | 0.01 µM | 95% | –
7 | COC[C@H]1CN(C(=O)[C@]2(F)CN(c3ccnc(OC)c3)C[C@H]2c2ccc(OC)cc2)C[C@@H]1c1ccc(C(F)(F)F)cc1N1CCC(C(=O)O)CC1 [Example 61] | 0.03 µM | 69% | –
8 | COc1ccc([C@@H]2CN(C(C)(C)C)C[C@@]2(F)C(=O)N2C[C@H](C(=O)N(C)C)[C@@H](c3ccc(C(F)(F)F)cc3N3CCC(C(=O)O)CC3)C2)cc1.Cl.Cl [Example 226, 1-{2-[(3S,4R)-1-{[(3R,4R)-1-tert-butyl-3-fluoro-4-(4-methoxyphenyl)pyrrolidin-3-yl]carbonyl}-4-(dimethylcarbamoyl)pyrrolidin-3-yl]-5-(trifluoromethyl)phenyl}piperidine-4-carboxylic acid dihydrochloride] | 0.047 µM | 132% | –
9 | COc1ccc([C@@H]2CN(C(C)(C)C)C[C@@]2(F)C(=O)N2C[C@H](CO)[C@@H](c3ccc(C(F)(F)F)cc3N3CCC(C(=O)O)CC3)C2)cc1.Cl.Cl [Example 224, 1-{2-[(3S,4R)-1-{[(3R,4R)-1-tert-butyl-3-fluoro-4-(4-methoxyphenyl)pyrrolidin-3-yl]carbonyl}-4-(hydroxymethyl)pyrrolidin-3-yl]-5-(trifluoromethyl)phenyl}piperidine-4-carboxylic acid dihydrochloride] | 0.011 µM | 109% | –
10 | COC[C@H]1CN(C(=O)[C@]2(F)CN([C@H]3CC[C@H](OC)CC3)C[C@H]2c2ccc(OC)cc2)C[C@@H]1c1ccc(C(F)(F)F)cc1N1CCC(C(=O)N(C)C)CC1 [Example 256] | 0.003 µM | 115% | –
11 | CNC(=O)C1CCN(c2cc(C(F)(F)F)ccc2C2CCN(C(=O)[C@]3(F)CN(C(C)(C)C)C[C@H]3c3ccc(OC)cc3)CC2)CC1.Cl.Cl [Example 231, 1-[2-(1-{[(3R,4R)-1-tert-butyl-3-fluoro-4-(4-methoxyphenyl)pyrrolidin-3-yl]carbonyl}piperidin-4-yl)-5-(trifluoromethyl)phenyl]-N-methylpiperidine-4-carboxamide dihydrochloride] | 0.011 µM | 82% | –
12 | COc1ccc([C@@H]2CN([C@H]3CC[C@H](OC)CC3)C[C@@]2(F)C(=O)N2CC[C@@H](c3ccc(F)cc3N3CCC(C(=O)O)CC3)C2)cc1 [Example 218] | 0.0043 µM | 110% | –
13 | COC[C@@H]1C[C@@H](c2ccc(C(F)(F)F)cc2N2CCC(C(=O)O)CC2)CN1C(=O)[C@]1(OC)CN([C@H]2CC[C@H](OC(C)C)CC2)C[C@H]1c1ccc(OC)cc1 [Example 160] | 0.00067 µM | 106% | –
14 | COC[C@H]1CN(C(=O)[C@]2(F)CN(C3CCCC3)C[C@H]2c2ccc(OC)cc2)C[C@@H]1c1ccc(C(F)(F)F)cc1N1CCC(C(=O)N2CCC[C@@H]2C(=O)O)CC1 [Example 270] | 0.0056 µM | 82% | –
15 | COc1ccc([C@@H]2CN([C@H]3CC[C@H](OC)CC3)C[C@@]2(F)C(=O)N2C[C@H](c3ccc(C(F)(F)F)cc3N3CCC(C(=O)O)CC3)[C@@H](F)C2)cc1 [Example 148] | 0.0036 µM | 93% | –
16 | COc1ccc([C@@H]2CN(C3CCCC3)C[C@@]2(F)C(=O)N2C[C@H](c3ccc(F)cc3N3CCC(C(=O)O)CC3)[C@@H](C)C2)cc1 [Example 100] | 0.0097 µM | 90% | –

Results, then the compound that gave them:

Row | EC50 [1] | Human MC1R IA % [1] | EC50 [2] | SMILES
17 | 0.124 µM | 55% | – | COc1ccc([C@@H]2CN(C3CCOC3)C[C@@]2(F)C(=O)N2CCC(c3ccc(C(F)(F)F)cc3N3CCC(C(=O)O)CC3)CC2)cc1 (stereo partly shown) [Example 289]
18 | 0.014 µM | 81% | – | COc1ccc([C@@H]2CN(C(C)(C)C)C[C@@]2(F)C(=O)N2CCC(c3ccc(C(F)(F)F)cc3N3CCN(C(N)=O)CC3)CC2)cc1.Cl.Cl [Example 284, 4-[2-(1-{[(3R,4R)-1-tert-butyl-3-fluoro-4-(4-methoxyphenyl)pyrrolidin-3-yl]carbonyl}piperidin-4-yl)-5-(trifluoromethyl)phenyl]piperazine-1-carboxamide dihydrochloride]
19 | 0.0007 µM | 83% | – | COc1ccc([C@@H]2CN(C3CCCC3)C[C@@]2(F)C(=O)N2C[C@H](c3ccc(C(F)(F)F)cc3N3CCC(C(=O)O)CC3)C[C@H]2CF)cc1 [Example 299]
20 | 0.217 µM | 25% | – | COc1ccc([C@@H]2CN(C3CCCC3)C[C@@]2(F)C(=O)N2CCCC(c3ccc(C(F)(F)F)cc3N3CCC(C(=O)O)CC3)C2)cc1 (single isomer, unassigned) [Example 292]
21 | 0.031 µM | 91% | – | COc1ccc([C@@H]2CN(C(C)(C)C)C[C@@]2(F)C(=O)N2CCC(c3ccc(C(F)(F)F)cc3OCCCc3noc(=O)[nH]3)CC2)cc1.Cl [Example 295, 3-{3-[2-(1-{[(3R,4R)-1-tert-butyl-3-fluoro-4-(4-methoxyphenyl)pyrrolidin-3-yl]carbonyl}piperidin-4-yl)-5-(trifluoromethyl)phenoxy]propyl}-1,2,4-oxadiazole-5(4H)-one hydrochloride]
22 | 0.804 µM | 81% | – | COc1ccc([C@@H]2CN(C3CCCC3)C[C@@]2(F)C(=O)N2CC(c3ccc(C(F)(F)F)cc3N3CCC(C(=O)O)CC3)C(F)(F)C2)cc1 (single isomer, unassigned) [Example 294]
23 | 0.019 µM | 72% | – | COc1ccc([C@@H]2CN(C(C)(C)C)C[C@@]2(F)C(=O)N2CCC(c3ccc(C(F)(F)F)cc3N3CCNCC3)CC2)cc1 [Example 281, [(3R,4R)-1-tert-butyl-3-fluoro-4-(4-methoxyphenyl)pyrrolidin-3-yl]{4-[2-(piperazin-1-yl)-4-(trifluoromethyl)phenyl]piperidin-1-yl}methanone]
24 | 0.0087 µM | 89% | – | COc1ccc([C@@H]2CN(CCCC(=O)N(C)C)C[C@@]2(F)C(=O)N2CCC(c3ccc(C(F)(F)F)cc3N3CCC(C(=O)O)CC3)CC2)cc1 [Example 304]
